From patent publication US7273848B2, “Apolipoprotein A-I agonists and their use to treat dyslipidemic disorders” (priority 1997, dated 2007)
Non-standard residues stand in square brackets, D forms with d. Residues, ends and D or L forms follow the SMILES beside them. 1Nal = N[C@@H](Cc1cccc2ccccc12)C(=O)O; Aib = CC(C)(N)C(=O)O

What was measured:
[1] = biological target: T1, LCAT (purified from human plasma) (Homo sapiens, UniProt P04180); test: LCAT activation assay; type: biochemical; details: LCAT activation as compared with native human ApoA-I (= 100%), equivalent masses
T1 construct: from tissue; host or cells: human plasma
T1 sequence (P04180 25-440): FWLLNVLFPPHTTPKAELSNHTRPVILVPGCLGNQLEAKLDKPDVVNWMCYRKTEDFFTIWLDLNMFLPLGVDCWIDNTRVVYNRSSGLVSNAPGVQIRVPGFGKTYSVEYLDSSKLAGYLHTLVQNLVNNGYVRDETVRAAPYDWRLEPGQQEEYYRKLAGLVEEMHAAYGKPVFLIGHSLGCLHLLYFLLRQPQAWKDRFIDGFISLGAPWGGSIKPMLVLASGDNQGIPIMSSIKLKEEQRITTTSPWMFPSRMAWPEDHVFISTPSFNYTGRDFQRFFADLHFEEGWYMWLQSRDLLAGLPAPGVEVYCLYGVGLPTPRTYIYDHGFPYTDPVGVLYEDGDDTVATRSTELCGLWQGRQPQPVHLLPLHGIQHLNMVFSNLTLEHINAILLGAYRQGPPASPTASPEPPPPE
Outline: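 Activity was expressed as percentage conversion of radiolabelled cholesterol to cholesteryl ester, normalised to native ApoA-I as 100%. LCAT purified from human plasma was added to peptide-preincubated EPC or POPC/cholesterol (20:1) small unilamellar vesicles at pH 7.4. Specific activity is the peptide concentration reaching the conversion plateau at a fixed timepoint.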

[2] = Circular dichroism helicity determination; type: physicochemical; details: percent helicity; for He (%) TFE: 5 μM peptide, 90% vol TFE; for He (%) TFE / He (%) SUVs: 37° C.; for He (%) free: unbound peptide 5 μM in 5 mM phosphate buffer, pH 7.4, 37° C.; for He (%) mics: peptide-micelle complexes, Ri=100, 37° C.; for He (%) SUVs: peptide-SUV complexes (20:1 EPC:Chol., Ri=30 and Ri=50)
Outline: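 Far-UV CD (190–260 nm) at 37° C on 5 μM peptide in 5 mM phosphate pH 7.4, free, with EPC:Chol 20:1 SUVs (Ri 30 or 50), lysophosphatidylcholine micelles (Ri 100) or 90% TFE. Spectra converted to molar ellipticity per residue; helicity from 222 nm ellipticity or CONTIN fitting to reference spectra, ±5%.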

ACTIVITY (%) LCAT [1] | He (%) TFE [2] | He (%) free [2] | He (%) mics [2] | He (%) SUVs [2] | SMILES
0% | 77% |  |  |  | CC(C)C[C@@H](NC(=O)[C@H](N)CCCCN)C(=O)N[C@H](CCCCN)C(=O)N[C@H](CCC(N)=O)C(=O)N[C@H](CCCCN)C(=O)N[C@H](CC(C)C)C(=O)N[C@H](C)C(=O)N[C@H](CCC(=O)O)C(=O)N[C@H](CC(C)C)C(=O)N[C@H](CC(C)C)C(=O)N[C@H](CCC(=O)O)C(=O)N[C@H](CC(N)=O)C(=O)N[C@H](CC(C)C)C(=O)N[C@H](CC(C)C)C(=O)N[C@H](CCC(=O)O)C(=O)N[C@H](CCCNC(=N)N)C(=O)N[C@H](Cc1ccccc1)C(=O)N[C@H](CC(C)C)C(=O)N[C@H](CC(=O)O)C(=O)N[C@H](CC(C)C)C(=O)N[C@@H](C(=O)N1CCC[C@@H]1C(=O)O)C(C)C [compound 107, klkqklaellenllerfldlvp]
0% | 54% | 28% | 55% |  | CC(C)C[C@H](NC(=O)[C@H](C)NC(=O)[C@H](CCC(=O)O)NC(=O)[C@H](CC(C)C)NC(=O)C(C)(C)NC(=O)[C@H](CCC(=O)O)NC(=O)[C@H](CC(N)=O)NC(=O)[C@H](CC(C)C)NC(=O)[C@H](CC(C)C)NC(=O)[C@H](Cc1c[nH]c2ccccc12)NC(=O)[C@H](CCCNC(=N)N)NC(=O)[C@H](Cc1ccccc1)NC(=O)[C@H](CC(C)C)NC(=O)[C@H](CC(=O)O)NC(=O)[C@H](CC(C)C)NC(=O)[C@@H](NC(=O)[C@@H]1CCCN1)C(C)C)C(=O)N[C@@H](CCCCN)C(=O)N[C@@H](CCC(N)=O)C(=O)N[C@@H](CCCCN)C(=O)N[C@@H](CC(C)C)C(=O)N[C@@H](CCCCN)C(=O)O [compound 108, PVLDLFRWLLNEXLEALKQKLK] (H-PVLDLFRWLLNE[Aib]LEALKQKLK-OH)
120% | 69% | 77% | 85% | 81% | CC(C)C[C@H](NC(=O)[C@H](CCCCN)NC(=O)[C@H](CCC(N)=O)NC(=O)[C@H](CCCCN)NC(=O)[C@H](CC(C)C)NC(=O)[C@H](Cc1cccc2ccccc12)NC(=O)[C@H](CCC(=O)O)NC(=O)[C@H](CC(C)C)NC(=O)[C@H](CC(C)C)NC(=O)[C@H](CCC(=O)O)NC(=O)[C@H](CC(N)=O)NC(=O)[C@H](CC(C)C)NC(=O)[C@H](CC(C)C)NC(=O)[C@H](CCC(=O)O)NC(=O)[C@H](CCCNC(=N)N)NC(=O)[C@H](Cc1ccccc1)NC(=O)[C@H](CC(C)C)NC(=O)[C@H](CC(=O)O)NC(=O)[C@H](CC(C)C)NC(=O)[C@@H](NC(=O)[C@@H]1CCCN1)C(C)C)C(=O)N[C@@H](CCCCN)C(=O)O [peptide 1, PVLDLFRELLNELLEZLKQKLK] (H-PVLDLFRELLNELLE[1Nal]LKQKLK-OH)

Further lines, the compound ahead of its results:

SMILES | ACTIVITY (%) LCAT [1] | He (%) TFE [2] | He (%) free [2] | He (%) mics [2] | He (%) SUVs [2]
CC(C)C[C@H](NC(=O)[C@H](C)NC(=O)[C@H](CCC(=O)O)NC(=O)[C@H](CC(C)C)NC(=O)C(C)(C)NC(=O)[C@H](CCC(=O)O)NC(=O)[C@H](Cc1ccccc1)NC(=O)[C@H](CC(C)C)NC(=O)[C@H](CC(C)C)NC(=O)[C@H](CCC(=O)O)NC(=O)[C@H](CCCNC(=N)N)NC(=O)[C@H](Cc1ccccc1)NC(=O)[C@H](CCC(=O)O)NC(=O)[C@H](CC(=O)O)NC(=O)[C@H](CC(C)C)NC(=O)[C@@H](NC(=O)[C@@H]1CCCN1)C(C)C)C(=O)N[C@@H](CCCCN)C(=O)N[C@@H](CCC(N)=O)C(=O)N[C@@H](CCCCN)C(=O)N[C@@H](CC(C)C)C(=O)N[C@@H](CCCCN)C(=O)O [compound 76, PVLDEFRELLFEXLEALKQKLK] (H-PVLDEFRELLFE[Aib]LEALKQKLK-OH) | 9% | 66% | 41% | 88% | 
CC(C)C[C@@H](NC(=O)[C@@H](C)NC(=O)[C@@H](CCC(=O)O)NC(=O)[C@@H](CC(C)C)NC(=O)[C@@H](CC(C)C)NC(=O)[C@@H](CCC(=O)O)NC(=O)[C@@H](CCC(N)=O)NC(=O)[C@@H](CC(C)C)NC(=O)[C@@H](CC(C)C)NC(=O)[C@@H](CCC(=O)O)NC(=O)[C@@H](CCCCN)NC(=O)[C@@H](CC(C)C)NC(=O)[C@@H](CC(C)C)NC(=O)[C@@H](CCC(=O)O)NC(=O)[C@@H](CC(C)C)NC(=O)[C@@H](CC(C)C)NC(=O)[C@H]1CCCN1)C(=O)N[C@H](CCCCN)C(=O)N[C@H](CCC(N)=O)C(=O)N[C@H](CCCCN)C(=O)N[C@H](CC(C)C)C(=O)N[C@H](CCCCN)C(=O)O [compound 87, pllellkellqellealkqklk] (H-[dP][dL][dL][dE][dL][dL][dK][dE][dL][dL][dQ][dE][dL][dL][dE][dA][dL][dK][dQ][dK][dL][dK]-OH) | 7% | 100% | 100% | 100% | 
CC(C)C[C@H](NC(=O)[C@H](C)NC(=O)[C@H](CCC(=O)O)NC(=O)[C@H](CC(C)C)NC(=O)C(C)(C)NC(=O)[C@H](CCC(=O)O)NC(=O)[C@H](CC(N)=O)NC(=O)[C@H](CC(C)C)NC(=O)[C@H](CC(C)C)NC(=O)[C@H](CCC(=O)O)NC(=O)[C@H](CCCNC(=N)N)NC(=O)[C@H](Cc1ccccc1)NC(=O)[C@H](CCC(=O)O)NC(=O)[C@H](CC(=O)O)NC(=O)[C@H](CC(C)C)NC(=O)[C@@H](NC(=O)[C@@H]1CCCN1)C(C)C)C(=O)N[C@@H](CCCCN)C(=O)N[C@@H](CCC(N)=O)C(=O)N[C@@H](CCCCN)C(=O)N[C@@H](CC(C)C)C(=O)N[C@@H](CCCCN)C(=O)O [compound 91, PVLDEFRELLNEXLEALKQKLK] (H-PVLDEFRELLNE[Aib]LEALKQKLK-OH) | 6% | 100% | 43% | 100% | 
CC(C)C[C@@H](NC(=O)[C@@H](C)NC(=O)[C@@H](CCC(=O)O)NC(=O)[C@@H](CC(C)C)NC(=O)C(C)(C)NC(=O)[C@@H](CCC(=O)O)NC(=O)[C@@H](CC(N)=O)NC(=O)[C@@H](CC(C)C)NC(=O)[C@@H](CC(C)C)NC(=O)[C@@H](CCC(=O)O)NC(=O)[C@@H](CCCNC(=N)N)NC(=O)[C@@H](Cc1ccccc1)NC(=O)[C@@H](CC(C)C)NC(=O)[C@@H](CC(=O)O)NC(=O)[C@@H](CC(C)C)NC(=O)[C@H](NC(=O)[C@H]1CCCN1)C(C)C)C(=O)N[C@H](CCCCN)C(=O)N[C@H](CCC(N)=O)C(=O)N[C@H](CCCCN)C(=O)N[C@H](CC(C)C)C(=O)N[C@H](CCCCN)C(=O)O [compound 96, pvldlfrellneXlealkqklk] (H-[dP][dV][dL][dD][dL][dF][dR][dE][dL][dL][dN][dE][Aib][dL][dE][dA][dL][dK][dQ][dK][dL][dK]-OH) | 5% | 81% | 52% | 85% | 63%
CC(C)C[C@H](NC(=O)[C@H](CCCCN)NC(=O)[C@H](CCC(N)=O)NC(=O)[C@H](CCCCN)NC(=O)[C@H](CC(C)C)NC(=O)[C@@H](N)CCCCN)C(=O)N[C@@H](C)C(=O)N[C@@H](CCC(=O)O)C(=O)N[C@@H](CC(C)C)C(=O)N[C@@H](CC(C)C)C(=O)N[C@@H](CCC(=O)O)C(=O)N[C@@H](CC(N)=O)C(=O)N[C@@H](CC(C)C)C(=O)N[C@@H](CC(C)C)C(=O)N[C@@H](CCC(=O)O)C(=O)N[C@@H](CCCNC(=N)N)C(=O)N[C@@H](Cc1ccccc1)C(=O)N[C@@H](CC(C)C)C(=O)N[C@@H](CC(=O)O)C(=O)N[C@@H](CC(C)C)C(=O)N[C@H](C(=O)N1CCC[C@H]1C(=O)O)C(C)C [compound 99] | 2% | 80% | 72% | 88% | 80%
CC(C)C[C@@H](NC(=O)[C@@H](C)NC(=O)[C@@H](CCC(=O)O)NC(=O)[C@@H](CC(C)C)NC(=O)[C@@H](CC(C)C)NC(=O)[C@@H](CCC(=O)O)NC(=O)[C@@H](CC(N)=O)NC(=O)[C@@H](CC(C)C)NC(=O)[C@@H](CC(C)C)NC(=O)[C@@H](CCC(=O)O)NC(=O)[C@@H](CCCNC(=N)N)NC(=O)[C@@H](Cc1ccccc1)NC(=O)[C@@H](CC(C)C)NC(=O)[C@@H](CC(=O)O)NC(=O)[C@@H](CC(C)C)NC(=O)[C@H](NC(=O)[C@H]1CCCN1)C(C)C)C(=O)N[C@H](CCCCN)C(=O)N[C@H](CCC(N)=O)C(=O)N[C@H](CCCCN)C(=O)N[C@H](CC(C)C)C(=O)N[C@H](CCCCN)C(=O)O [compound 100, pvldlfrellnellealkqklk] | 2% | 98% | 83% | 92% | 
